# Measurements from BindingDB's records for doi:10.1021/jm00006a011 (Merck Sharp & Dohme Research Laboratories, 1995).
# Biological target: Substance-P receptor (Homo sapiens, UniProt P25103)
# Assay: Binding affinity at human Tachykinin receptor 1 expressed in CHO cells by [125 I][…]-substance P displacement.
# Sequence of Substance-P receptor (P25103 whole entry): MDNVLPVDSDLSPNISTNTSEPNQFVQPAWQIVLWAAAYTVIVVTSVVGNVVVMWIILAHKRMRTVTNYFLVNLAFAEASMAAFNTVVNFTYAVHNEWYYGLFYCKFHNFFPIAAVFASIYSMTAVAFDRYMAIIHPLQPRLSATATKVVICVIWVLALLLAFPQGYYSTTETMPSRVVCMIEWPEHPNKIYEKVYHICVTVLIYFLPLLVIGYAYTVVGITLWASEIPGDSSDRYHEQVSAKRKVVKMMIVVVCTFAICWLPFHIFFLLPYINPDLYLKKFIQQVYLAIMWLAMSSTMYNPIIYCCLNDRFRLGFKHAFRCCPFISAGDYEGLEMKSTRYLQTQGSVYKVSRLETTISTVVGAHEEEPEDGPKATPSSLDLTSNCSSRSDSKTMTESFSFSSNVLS
smiles,measurement,value
O=c1oc(Cc2c[nH]c3ccccc23)c(O)n1Cc1cc(C(F)(F)F)cc(C(F)(F)F)c1,IC50,0.022 µM
